Inconclusive results and toxic doses are left out. Rule as the data show it: active = T/C of 150% or more; inactive = T/C below 125%. Square brackets hold non-standard residues; d marks the D form. Peptide text beside a SMILES is read from it. * marks the point of attachment. Cbz = O=C(OCc1ccccc1)*; Sar = CNCC(=O)O
System: L1210 leukemia ip in BDF1 mice, survival T/C
Assay: NCI In Vivo Anticancer Drug Screen. Data for tumor model L1210 Leukemia (intraperitoneal) in B6D2F1 (BDF1) mice
Conditions: endpoint: mean survival time, higher = longer survival
How it was run: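 Each compound was tested against a transplantable tumor grown in mice. The endpoint was survival, with treated animals benchmarked against vehicle controls as a simple ratio.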

[1] = dose: 100.0 mg/kg/injection, schedule: Q04DX003 (ip), vehicle: saline
[2] = dose: 200.0 mg/kg/injection, schedule: Q04DX003 (ip), vehicle: saline
[3] = dose: 400.0 mg/kg/injection, schedule: Q04DX003 (ip), vehicle: saline
[4] = dose: 100.0 mg/kg/injection, schedule: Q01DX009 (ip), vehicle: saline
[5] = dose: 200.0 mg/kg/injection, schedule: Q01DX009 (ip), vehicle: saline
[6] = dose: 400.0 mg/kg/injection, schedule: Q01DX009 (ip), vehicle: saline
[7] = dose: 100.0 mg/kg/injection, schedule: Q01DX001 (ip), vehicle: saline
[8] = dose: 200.0 mg/kg/injection, schedule: Q01DX001 (ip), vehicle: saline
[9] = dose: 100.0 mg/kg/injection, schedule: Q01DX009 (ip), vehicle: saline with Tween-80

Measured: T/C

O=S1(=O)c2ccccc2NC(c2ccc(Cl)cc2)C1c1ccccc1 (stereo not drawn)
inactive: [1] 95 % of control | [2] 89 % of control | [3] 97 % of control

CC(=O)Nc1ccc(OC(=O)Nc2ccc([N+](=O)[O-])cc2Cl)cc1
inactive: [4] 102 % of control | [1] 103 % of control | [5] 104 % of control | [2] 100 % of control | [6] 104 % of control | [3] 103 % of control

O=C(COc1ccc(Cl)c(Cl)c1)Nc1ccc[n+](Cc2c(Cl)cccc2S(=O)(=O)F)c1
inactive: [7] 88 % of control | [8] 101 % of control

CCCCCOCC
inactive: [7] 103 % of control | [4] 96 % of control | [8] 105 % of control | [5] 101 % of control | dose: 400.0 mg/kg/injection, schedule: Q01DX001 (ip), vehicle: saline 103 % of control | [6] 101 % of control

COC(=O)CN(C)C(=O)CNC(=O)OCc1ccccc1 (Cbz-Gly-[Sar]-OMe)
inactive: [1] 97 % of control | [2] 90 % of control | [3] 100 % of control

Cc1ccc(Oc2ccc(C(=O)O)cc2)cc1
inactive: dose: 100.0 mg/kg/injection, schedule: Q04DX003 (ip), vehicle: Klucel (hydroxypropylcellulose) (HPC) 96 % of control | dose: 200.0 mg/kg/injection, schedule: Q04DX003 (ip), vehicle: Klucel (hydroxypropylcellulose) (HPC) 102 % of control | dose: 400.0 mg/kg/injection, schedule: Q04DX003 (ip), vehicle: Klucel (hydroxypropylcellulose) (HPC) 103 % of control

C(=N\NC1=NCCN1)/c1ccccc1
inactive: dose: 2.5 mg/kg/injection, schedule: Q01DX009 (ip), vehicle: saline 101 % of control | dose: 5.0 mg/kg/injection, schedule: Q01DX009 (ip), vehicle: saline 97 % of control | dose: 5.0 mg/kg/injection, schedule: Q04DX003 (ip), vehicle: saline 97 % of control | dose: 10.0 mg/kg/injection, schedule: Q01DX001 (ip), vehicle: saline 105 % of control | dose: 10.0 mg/kg/injection, schedule: Q01DX009 (ip), vehicle: saline 93 % of control | dose: 10.0 mg/kg/injection, schedule: Q04DX003 (ip), vehicle: saline 94 % of control | dose: 20.0 mg/kg/injection, schedule: Q01DX001 (ip), vehicle: saline 104 % of control | dose: 20.0 mg/kg/injection, schedule: Q04DX003 (ip), vehicle: saline 97 % of control

O=C(CCl)Oc1ccccc1
inactive: dose: 50.0 mg/kg/injection, schedule: Q01DX009 (ip), vehicle: saline with Tween-80 94 % of control | [9] 87 % of control | dose: 100.0 mg/kg/injection, schedule: Q04DX003 (ip), vehicle: saline with Tween-80 101 % of control | dose: 200.0 mg/kg/injection, schedule: Q04DX003 (ip), vehicle: saline with Tween-80 96 % of control

CCc1ccccc1NC(=O)NCc1ccco1
inactive: dose: 100.0 mg/kg/injection, schedule: Q01DX009 (ip), vehicle: Klucel (hydroxypropylcellulose) (HPC) 101 % of control | dose: 200.0 mg/kg/injection, schedule: Q01DX009 (ip), vehicle: Klucel (hydroxypropylcellulose) (HPC) 92 % of control

OC1CC23C(O)CCCC12C1C=CC3C1 (stereo not drawn)
inactive: dose: 25.0 mg/kg/injection, schedule: Q04DX002 (ip), vehicle: saline with Tween-80 95 % of control | dose: 50.0 mg/kg/injection, schedule: Q04DX002 (ip), vehicle: saline with Tween-80 98 % of control | dose: 100.0 mg/kg/injection, schedule: Q04DX002 (ip), vehicle: saline with Tween-80 98 % of control | dose: 200.0 mg/kg/injection, schedule: Q04DX002 (ip), vehicle: saline with Tween-80 98 % of control

CCCCCCN(C)Cc1ccc(OCCOc2ccc(CN(C)CCCCCC)cc2)cc1
inactive: dose: 50.0 mg/kg/injection, schedule: Q01DX001 (ip), vehicle: saline 100 % of control

NNCc1cc(Cl)c2cccnc2c1O
inactive: dose: 100.0 mg/kg/injection, schedule: Q04DX002 (ip), vehicle: Klucel (hydroxypropylcellulose) (HPC) 105 % of control | dose: 200.0 mg/kg/injection, schedule: Q04DX002 (ip), vehicle: Klucel (hydroxypropylcellulose) (HPC) 105 % of control | dose: 400.0 mg/kg/injection, schedule: Q04DX002 (ip), vehicle: Klucel (hydroxypropylcellulose) (HPC) 99 % of control

c1ccc2cc(Nc3ccc4ccccc4c3)ccc2c1
inactive: [9] 106 % of control | dose: 200.0 mg/kg/injection, schedule: Q01DX009 (ip), vehicle: saline with Tween-80 108 % of control | dose: 400.0 mg/kg/injection, schedule: Q01DX009 (ip), vehicle: saline with Tween-80 101 % of control
